Target: Nurr1 protein (Homo sapiens, UniProt P43354)
Experiment: SPR
Type: binding

Sequence of Nurr1 protein (P43354 whole entry): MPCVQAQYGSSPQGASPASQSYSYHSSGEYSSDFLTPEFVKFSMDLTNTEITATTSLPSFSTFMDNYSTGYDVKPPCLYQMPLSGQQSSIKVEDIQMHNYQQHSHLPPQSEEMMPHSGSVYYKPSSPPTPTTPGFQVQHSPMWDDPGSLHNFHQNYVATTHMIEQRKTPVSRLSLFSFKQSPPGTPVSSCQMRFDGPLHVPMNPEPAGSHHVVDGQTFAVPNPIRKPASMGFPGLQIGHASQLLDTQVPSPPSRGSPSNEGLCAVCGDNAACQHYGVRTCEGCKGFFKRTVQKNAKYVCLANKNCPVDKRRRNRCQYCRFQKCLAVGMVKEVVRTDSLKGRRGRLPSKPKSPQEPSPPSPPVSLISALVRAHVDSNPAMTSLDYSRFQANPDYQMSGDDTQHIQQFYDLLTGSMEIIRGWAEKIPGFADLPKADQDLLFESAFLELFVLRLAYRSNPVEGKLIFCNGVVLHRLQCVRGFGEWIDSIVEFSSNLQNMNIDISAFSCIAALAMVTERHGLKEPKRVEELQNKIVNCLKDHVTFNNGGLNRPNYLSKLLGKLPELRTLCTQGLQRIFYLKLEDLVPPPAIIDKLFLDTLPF

| Structure (SMILES) | Kd |
| --- | --- |
| CCN(CC)Cc1cc(Nc2ccnc3cc(Cl)ccc23)ccc1O [amodiaquine] | 37 µM |
| CO[C@H]1C[C@H](O[C@H]2CC[C@]3(C=O)[C@H]4CC[C@]5(C)[C@@H](C6=CC(=O)OC6)CC[C@]5(O)[C@@H]4CC[C@]3(O)C2)O[C@H](C)[C@H]1O[C@@H]1O[C@H](CO[C@@H]2O[C@H](CO)[C@@H](O)[C@H](O)[C@H]2O)[C@@H](O)[C@H](O)[C@H]1O [compound 7, K-strophanthoside] | 23.1 µM |
